Key:
FADD−/− Jurkat cells = test: Necroptosis inhibition assay, TNF-α-induced necroptosis (CellTiter-Glo 2.0); type: cell-based, human; conditions: TNF-α 15 ng/mL; for Necroptosis inhibition assay (Rescue %) 1 μM: compound 1 μM; for Necroptosis inhibition assay (Rescue %) 10 μM: compound 10 μM
Method in brief: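 Necroptosis was triggered by TNF-α at 15 ng/mL final following 30 minutes of compound exposure (0.1, 1 or 10 μM final). Incubation ran 20 to 24 hours at 37° C under 5% CO2; cell ATP was then quantified by luminescence.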

MLKL [1] = target: T1, MLKL (Homo sapiens, UniProt Q8NB16); test: MLKL degradation assay in HepG2 cell line (western blot); type: cell-based; set-up: endogenous in cells; host or cells: HepG2 or HaCaT; conditions: cell line not given; for Degradation assay (Degradation %) 1 μM: compound 1 μM; for Degradation assay (Degradation %) 10 μM: compound 10 μM
T1 sequence (Q8NB16 1-471): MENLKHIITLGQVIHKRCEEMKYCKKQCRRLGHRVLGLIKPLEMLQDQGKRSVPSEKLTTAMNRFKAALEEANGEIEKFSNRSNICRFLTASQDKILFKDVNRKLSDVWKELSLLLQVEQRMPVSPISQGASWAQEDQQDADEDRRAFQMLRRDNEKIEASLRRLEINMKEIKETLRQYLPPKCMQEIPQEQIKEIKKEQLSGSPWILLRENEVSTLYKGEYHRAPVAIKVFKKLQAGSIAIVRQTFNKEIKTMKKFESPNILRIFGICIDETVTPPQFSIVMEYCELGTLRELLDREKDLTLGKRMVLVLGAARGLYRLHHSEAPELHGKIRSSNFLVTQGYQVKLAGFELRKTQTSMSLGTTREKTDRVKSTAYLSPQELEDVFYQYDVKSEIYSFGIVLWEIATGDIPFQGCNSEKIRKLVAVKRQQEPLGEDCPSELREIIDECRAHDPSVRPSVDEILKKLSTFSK
Method in brief: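 After treating HepG2 with test compounds (final 1 μM or 10 μM) for 20-24 h, we lysed cells, equalized protein by BCA and probed MLKL by overnight primary antibody at 4 °C followed by chemiluminescent detection.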

MLKL [2] = target: T1, MLKL; test: Measurement of binding affinity with MLKL receptor (competitive binding assay, Kd); set-up: made in house; host or cells: HEK 293 cell line (T7 phage in E. coli BL21-derived host is also described)
Method in brief: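 Kd comes from a bead-based competition format: compound-dependent loss of DNA-tagged, HEK 293-expressed MLKL capture, measured as eluate kinase by qPCR. Final DMSO is 0.9%.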

Compound | Degradation assay (Degradation %) 1 μM (MLKL [1]) | Degradation assay (Degradation %) 10 μM (MLKL [1]) | Kd (MLKL [2]) | Necroptosis inhibition assay (Rescue %) 1 μM (FADD−/− Jurkat cells) | Necroptosis inhibition assay (Rescue %) 10 μM (FADD−/− Jurkat cells)
Nc1ncc(-c2cnn(C3CCN(CC4CCN(c5ccc6nnn(C7CCC(=O)NC7=O)c(=O)c6c5)CC4)CC3)c2)nc1C(=O)O[C@@H](C(=O)Nc1ccc(F)cc1)c1ccccc1 (stereo partly drawn) [TDH-172, (R)-2-((4-fluorophenyl)amino)-2-oxo-1-phenylethyl 3-amino-6-(1-(1-((1-(3-(2,6-dioxopiperidin-3-yl)-4-oxo-3,4-dihydrobenzo[d][1,2,3]triazin-6-yl)piperidin-4-yl)methyl)piperidin-4-yl)-1H-pyrazol-4-yl)pyrazine-2-carboxylate] | 59.24% | 57.1% | 26 nM | 85.53% | 74.34%
Nc1ncc(-c2cnn(C3CCN(CCCCCCCCCCNC(=O)CNc4ccc5nnn(C6CCC(=O)NC6=O)c(=O)c5c4)CC3)c2)nc1C(=O)O[C@@H](C(=O)Nc1ccc(F)cc1)c1ccccc1 (stereo partly drawn) [TDH-173, (R)-2-((4-fluorophenyl)amino)-2-oxo-1-phenylethyl 3-amino-6-(1-(1-(10-(2-((3-(2,6-dioxopiperidin-3-yl)-4-oxo-3,4-dihydrobenzo[d][1,2,3]triazin-6-yl)amino)acetamido)decyl)piperidin-4-yl)-1H-pyrazol-4-yl)pyrazine-2-carboxylate] | 61.08% | 75.11% | 17 nM | 47.27% | 35.55%
Nc1ncc(-c2cnn(C3CCN(CCOCCOCCOCCNC(=O)CNc4ccc5nnn(C6CCC(=O)NC6=O)c(=O)c5c4)CC3)c2)nc1C(=O)O[C@@H](C(=O)Nc1ccc(F)cc1)c1ccccc1 (stereo partly drawn) [TDH-175, (R)-2-((4-fluorophenyl)amino)-2-oxo-1-phenylethyl 3-amino-6-(1-(1-(1-((3-(2,6-dioxopiperidin-3-yl)-4-oxo-3,4-dihydrobenzo[d][1,2,3]triazin-6-yl)amino)-2-oxo-6,9,12-trioxa-3-azatetradecan-14-yl)piperidin-4-yl)-1H-pyrazol-4-yl)pyrazine-2-carboxylate] | 48.93% | 43.56% | 7.3 nM | 18.82% | 35.89%
Nc1ncc(-c2cnn(C3CCN(CCCCCCCCCCNC(=O)COc4ccc5nnn(C6CCC(=O)NC6=O)c(=O)c5c4)CC3)c2)nc1C(=O)O[C@@H](C(=O)Nc1ccc(F)cc1)c1ccccc1 (stereo partly drawn) [TDH-176, (R)-2-((4-fluorophenyl)amino)-2-oxo-1-phenylethyl 3-amino-6-(1-(1-(10-(2-((3-(2,6-dioxopiperidin-3-yl)-4-oxo-3,4-dihydrobenzo[d][1,2,3]triazin-6-yl)oxy)acetamido)decyl)piperidin-4-yl)-1H-pyrazol-4-yl)pyrazine-2-carboxylate] | 34.07% | 23.76% | 22 nM | 44.28% | 35.42%
Nc1ncc(-c2cnn(C3CCN(CCCCCCCCCCNC(=O)C4CCN(c5ccc6nnn(C7CCC(=O)NC7=O)c(=O)c6c5)CC4)CC3)c2)nc1C(=O)O[C@@H](C(=O)Nc1ccc(F)cc1)c1ccccc1 (stereo partly drawn) [TDH-177, (R)-2-((4-fluorophenyl)amino)-2-oxo-1-phenylethyl 3-amino-6-(1-(1-(10-(1-(3-(2,6-dioxopiperidin-3-yl)-4-oxo-3,4-dihydrobenzo[d][1,2,3]triazin-6-yl)piperidine-4-carboxamido)decyl)piperidin-4-yl)-1H-pyrazol-4-yl)pyrazine-2-carboxylate] | 36.03% | 75.8% | 84 nM | 41.3% | 48.7%

Second part, led by results:

Degradation assay (Degradation %) 1 μM (MLKL [1]) | Degradation assay (Degradation %) 10 μM (MLKL [1]) | Kd (MLKL [2]) | Compound | Necroptosis inhibition assay (Rescue %) 1 μM (FADD−/− Jurkat cells) | Necroptosis inhibition assay (Rescue %) 10 μM (FADD−/− Jurkat cells)
36.7% | 60.91% | 1.7 nM | Nc1ncc(-c2cnn(C3CCN(CCOCCOCCNC(=O)COc4ccc5c(c4)C(=O)N(C4CCC(=O)NC4=O)C5=O)CC3)c2)nc1C(=O)O[C@@H](C(=O)Nc1ccc(F)cc1)c1ccccc1 (stereo partly drawn) [TDH-167, (R)-2-((4-fluorophenyl)amino)-2-oxo-1-phenylethyl 3-amino-6-(1-(1-(2-(2-(2-(2-((2-(2,6-dioxopiperidin-3-yl)-1,3-dioxoisoindolin-5-yl)oxy)acetamido)ethoxy)ethoxy)ethyl)piperidin-4-yl)-1H-pyrazol-4-yl)pyrazine-2-carboxylate] | 45.5% | 38.58%
– | 24.52% | 7.1 nM | Nc1ncc(-c2cnn(C3CCN(CCOCCNC(=O)COc4ccc5c(c4)C(=O)N(C4CCC(=O)NC4=O)C5=O)CC3)c2)nc1C(=O)O[C@@H](C(=O)Nc1ccc(F)cc1)c1ccccc1 (stereo partly drawn) [TDH-168, (R)-2-((4-fluorophenyl)amino)-2-oxo-1-phenylethyl 3-amino-6-(1-(1-(2-(2-(2-((2-(2,6-dioxopiperidin-3-yl)-1,3-dioxoisoindolin-5-yl)oxy)acetamido)ethoxy)ethyl)piperidin-4-yl)-1H-pyrazol-4-yl)pyrazine-2-carboxylate] | 31.24% | 40.55%
71.77% | 58.09% | 2 nM | Nc1ncc(-c2cnn(C3CCN(CC4CCN(C(=O)COc5ccc6nnn(C7CCC(=O)NC7=O)c(=O)c6c5)CC4)CC3)c2)nc1C(=O)O[C@@H](C(=O)Nc1ccc(F)cc1)c1ccccc1 (stereo partly drawn) [TDH-169, (R)-2-((4-fluorophenyl)amino)-2-oxo-1-phenylethyl 3-amino-6-(1-(1-((1-(2-((3-(2,6-dioxopiperidin-3-yl)-4-oxo-3,4-dihydrobenzo[d][1,2,3]triazin-6-yl)oxy)acetyl)piperidin-4-yl)methyl)piperidin-4-yl)-1H-pyrazol-4-yl)pyrazine-2-carboxylate] | 68.09% | 50.74%
60.57% | 58.27% | 4.6 nM | Nc1ncc(-c2cnn(C3CCN(CC4CCN(C(=O)C5CN(c6ccc7nnn(C8CCC(=O)NC8=O)c(=O)c7c6)C5)CC4)CC3)c2)nc1C(=O)O[C@@H](C(=O)Nc1ccc(F)cc1)c1ccccc1 (stereo partly drawn) [TDH-170, (R)-2-((4-fluorophenyl)amino)-2-oxo-1-phenylethyl 3-amino-6-(1-(1-((1-(1-(3-(2,6-dioxopiperidin-3-yl)-4-oxo-3,4-dihydrobenzo[d][1,2,3]triazin-6-yl)azetidine-3-carbonyl)piperidin-4-yl)methyl)piperidin-4-yl)-1H-pyrazol-4-yl)pyrazine-2-carboxylate] | 44.08% | 23.26%
64.64% | 64.5% | 2.3 nM | Nc1ncc(-c2cnn(C3CCN(CC4CCN(C(=O)COc5ccc6c(c5)C(=O)N(C5CCC(=O)NC5=O)C6=O)CC4)CC3)c2)nc1C(=O)O[C@@H](C(=O)Nc1ccc(F)cc1)c1ccccc1 (stereo partly drawn) [TDH-171, (R)-2-((4-fluorophenyl)amino)-2-oxo-1-phenylethyl 3-amino-6-(1-(1-((1-(2-((2-(2,6-dioxopiperidin-3-yl)-1,3-dioxoisoindolin-5-yl)oxy)acetyl)piperidin-4-yl)methyl)piperidin-4-yl)-1H-pyrazol-4-yl)pyrazine-2-carboxylate] | 93.81% | 65.91%
49.38% | 52.62% | 2.2 nM | Nc1ncc(-c2cnn(C3CCN(CCOCCOCCNC(=O)CNc4ccc5nnn(C6CCC(=O)NC6=O)c(=O)c5c4)CC3)c2)nc1C(=O)O[C@@H](C(=O)Nc1ccc(F)cc1)c1ccccc1 (stereo partly drawn) [TDH-174, (R)-2-((4-fluorophenyl)amino)-2-oxo-1-phenylethyl 3-amino-6-(1-(1-(2-(2-(2-(2-((3-(2,6-dioxopiperidin-3-yl)-4-oxo-3,4-dihydrobenzo[d][1,2,3]triazin-6-yl)amino)acetamido)ethoxy)ethoxy)ethyl)piperidin-4-yl)-1H-pyrazol-4-yl)pyrazine-2-carboxylate] | 16.47% | 42.59%
